From ChEMBL document CHEMBL4421722, “Inhibitors of protein prenyltransferases” (2013) come the findings set out here.

For the experiment, the species on record is Rattus norvegicus. The experiment is described as follows: Inhibition of rat recombinant geranylgeranyltransferase type I expressed in Escherichia coli assessed as residual enzyme activity for geranylgeranylation of K-Ras4B at 50 uM incubated for 30 mins in presence of [3H]GGPP by scintillation counting assay relative to control.
On to `CCCS[C@@H]1C[C@@H](c2ccc(C)cc2)N(S(=O)(=O)c2ccccc2)C[C@H]1C(=O)O`, for which the Activity is 100%.
As for `Cc1ccc(S(=O)(=O)N2[C@@H](c3cccc(C)c3)C(C(=O)O)=CC[C@H]2c2ccccc2F)cc1`, the figure is 62.8%; as for `CCCCCCS[C@@H]1C[C@@H](c2cc(OC)c(OC)c(OC)c2)N(S(=O)(=O)c2ccc(C)cc2)C[C@H]1C(=O)O`, 93.6%; as for `CCCCCCS[C@@H]1C[C@@H](c2ccc(OC)cc2)N(S(=O)(=O)c2ccc(C)cc2)C[C@H]1C(=O)O`, 83.6%.
In the case of `Cc1ccc(S(=O)(=O)N2[C@@H](c3cccc(F)c3)C(C(=O)O)=CC[C@H]2c2ccc3c(c2)OCO3)cc1`, the Activity stood at 90.9%.
As for `CCCCCCS[C@@H]1C[C@@H](c2ccc(Cl)cc2)N(S(=O)(=O)c2ccccc2C)C[C@H]1C(=O)O`, the figure is 66.3%; as for `COc1ccc([C@@H]2C[C@@H](SC3CCCC3)[C@H](C(=O)O)CN2S(=O)(=O)c2ccccc2)cc1`, 94.5%; as for `COc1ccc([C@@H]2C[C@@H](SCC(C)C)[C@H](C(=O)O)CN2S(=O)(=O)c2ccccc2C)cc1`, 79.7%.
Next, `CC(=O)C1=CC[C@@H](c2cccc(Cl)c2)N(S(=O)(=O)c2ccc(C)cc2)C1`: 86%; `Cc1ccc([C@H]2C(C(=O)O)=CC[C@@H](c3ccc(C(C)C)cc3)N2S(=O)(=O)c2ccc(C)cc2)cc1`: 63.7%.
With `CCCS[C@@H]1C[C@@H](c2ccc(C)cc2)N(S(=O)(=O)c2ccc(C)cc2)C[C@H]1C(=O)O`, the Activity stood at 69.8%.
As for `COc1ccc(S[C@@H]2C[C@@H](c3cccc(OC)c3)N(S(=O)(=O)c3ccc(C)cc3)C[C@H]2C(=O)O)cc1`, the Activity came out at 101%.
Turning to `COc1ccc([C@@H]2C[C@@H](Sc3ccc(Cl)cc3)[C@H](C(=O)O)CN2S(=O)(=O)c2ccc(C)cc2)cc1OC`, the Activity is 107%.
As for `Cc1ccc([C@@H]2C[C@@H](SCCc3ccccc3)[C@H](C(=O)O)CN2S(=O)(=O)c2ccccc2)cc1`, the figure is 55.5%.
As for `CCCS[C@@H]1C[C@@H](c2cccc(Br)c2)N(S(=O)(=O)c2ccc(C)cc2)C[C@H]1C(=O)O`, the figure is 88.5%.
On to `COc1ccc([C@@H]2CC=C(C(=O)O)[C@H](c3cccc(C)c3)N2S(=O)(=O)c2ccc(C)cc2)cc1`, for which the Activity stood at 67.3%.
With `CC(=O)C1=CC[C@@H](c2ccc(C)cc2)N(S(=O)(=O)c2ccc(Cl)cc2)C1`, the Activity worked out at 112%.
Next, `Cc1ccc([C@@H]2C[C@@H](SCc3ccccc3)[C@H](C(=O)O)CN2S(=O)(=O)c2ccc(Cl)cc2)cc1`: 40.3%; `CCOc1ccc([C@@H]2C[C@@H](SCC)[C@H](C(=O)O)CN2S(=O)(=O)c2ccc(C)cc2)cc1`: 87.1%.
Turning to `Cc1ccc(S(=O)(=O)N2[C@@H](c3cccc(Br)c3)C(C(=O)O)=CC[C@H]2c2ccc3c(c2)OCO3)cc1`, the Activity stood at 75.1%.
`COc1ccc([C@@H]2CC=C(C(=O)O)[C@H](c3cccc(F)c3)N2S(=O)(=O)c2ccc(C)cc2)cc1OC`: the Activity stood at 88.9%.
Take `Cc1ccc([C@H]2C(C(=O)O)=CC[C@@H](c3ccc(C)cc3)N2S(=O)(=O)c2ccc(Cl)cc2)cc1`: the Activity was 53%.
`Cc1ccc(S(=O)(=O)N2[C@@H](c3ccc(C(C)(C)C)cc3)C(C(=O)O)=CC[C@H]2c2ccc3c(c2)OCO3)cc1`: the Activity turned out to be 87.2%.
As to `Cc1ccc(S(=O)(=O)N2[C@@H](c3ccc(Cl)cc3)C(C(=O)O)=CC[C@H]2c2ccc(C#N)cc2)cc1`, the Activity is 73.1%.
Next, `Cc1ccc(S(=O)(=O)N2[C@@H](c3cccc(C)c3)C(C(=O)O)=CC[C@H]2c2ccccc2)cc1`: 64.9%.
Regarding `Cc1ccc(S[C@@H]2C[C@@H](c3ccc(Cl)cc3)N(S(=O)(=O)c3ccc(C)cc3)C[C@H]2C(=O)O)cc1`, the Activity turned out to be 76.1%.
Consider `COc1cc([C@@H]2C[C@@H](Sc3ccc(C)cc3)[C@H](C(=O)O)CN2S(=O)(=O)c2ccc(C)cc2)cc(OC)c1OC`, for which the Activity amounted to 95.6%.
As to `Cc1ccc(S(=O)(=O)N2[C@@H](c3cccc(C)c3)C(C(=O)O)=CC[C@H]2c2ccc(C(C)C)cc2)cc1`, the Activity stood at 57.1%.
As to `Cc1ccc([C@@H]2C[C@@H](Sc3ccc(Cl)cc3)[C@H](C(=O)O)CN2S(=O)(=O)c2ccc(C)cc2)cc1`, the Activity is 57%.
Regarding `CCc1ccc([C@@H]2C[C@@H](SC3CCCC3)[C@H](C(=O)O)CN2S(=O)(=O)c2ccc(C)cc2)cc1`, the Activity stood at 87%.
As for `COc1ccc([C@@H]2C[C@@H](Sc3ccccc3)[C@H](C(=O)O)CN2S(=O)(=O)c2ccc(C)cc2)cc1OC`, the Activity came to 112%.
In the case of `COc1cc([C@@H]2C[C@@H](SCCC(C)C)[C@H](C(=O)O)CN2S(=O)(=O)c2ccc(C)cc2)cc(OC)c1OC`, the Activity came out at 106%.
In the case of `COc1ccc([C@@H]2CC=C(C(=O)O)[C@H](c3ccc(F)cc3)N2S(=O)(=O)c2ccc(C)cc2)cc1`, the Activity was determined as 72.9%.
With `CC(=O)C1=CC[C@@H](c2ccccc2)N(S(=O)(=O)c2ccc(C)cc2)C1`, the Activity turned out to be 98.8%.
As for `CC(=O)C1=CC[C@@H](c2ccc(C)cc2)N(S(=O)(=O)c2ccccc2[N+](=O)[O-])C1`, the figure is 110%; as for `Cc1ccc(S(=O)(=O)N2C[C@@H](C(=O)O)[C@H](SC3CCCC3)C[C@H]2c2cccc(Cl)c2)cc1`, 88.7%.
As for `CCCS[C@@H]1C[C@@H](c2ccc(OC)cc2)N(S(=O)(=O)c2ccc(Cl)cc2)C[C@H]1C(=O)O`, the figure is 72.8%; as for `Cc1ccc([C@H]2C(C(=O)O)=CC[C@@H](c3ccc(C)cc3)N2S(=O)(=O)c2ccc(C)cc2)cc1`, 73.6%; as for `C=CCS[C@@H]1C[C@@H](c2cc(OC)c(OC)c(OC)c2)N(S(=O)(=O)c2ccc(C)cc2)C[C@H]1C(=O)O`, 109%.
With `COc1cccc([C@@H]2C[C@@H](SCC(C)C)[C@H](C(=O)O)CN2S(=O)(=O)c2ccc(C)cc2)c1`, the Activity worked out at 64.5%.
`Cc1ccc(S(=O)(=O)N2[C@@H](c3cccc(Cl)c3)C(C(=O)O)=CC[C@H]2c2cccc(C)c2)cc1`: the Activity stood at 57.6%.
For the molecule `COc1cc([C@@H]2C[C@@H](SC3CCCC3)[C@H](C(=O)O)CN2S(=O)(=O)c2ccc(C)cc2)cc(OC)c1OC`, the Activity worked out at 105%.
Next, `Cc1ccc([C@@H]2C[C@@H](SCc3ccccc3)[C@H](C(=O)O)CN2S(=O)(=O)c2ccc(C)cc2)cc1`: 93.1%; `COc1ccc([C@@H]2CC=C(C(=O)O)[C@H](c3ccc(F)cc3)N2S(=O)(=O)c2ccc(C)cc2)cc1OC`: 69.8%.
Next, `Cc1ccc(S(=O)(=O)N2[C@@H](c3ccc(Cl)cc3)C(C(=O)O)=CC[C@H]2c2cccc(C)c2)cc1`: 74.7%; `COc1ccc(S[C@@H]2C[C@@H](c3ccc(C)cc3)N(S(=O)(=O)c3ccccc3C)C[C@H]2C(=O)O)cc1`: 99%; `CCCS[C@@H]1C[C@@H](c2ccc(OC)cc2)N(S(=O)(=O)c2ccccc2C)C[C@H]1C(=O)O`: 88.4%.
Turning to `CCCS[C@@H]1C[C@@H](c2ccc(C)cc2)N(S(C)(=O)=O)C[C@H]1C(=O)O`, the Activity turned out to be 96.8%.
In the case of `CCc1ccc([C@@H]2C[C@@H](Sc3ccc(C)cc3)[C@H](C(=O)O)CN2S(=O)(=O)c2ccc(C)cc2)cc1`, the Activity came to 85%.
As for `Cc1ccc(S(=O)(=O)N2C[C@@H](C(=O)O)[C@H](SCc3ccc(C(C)(C)C)cc3)C[C@H]2c2cccc(Cl)c2)cc1`, the figure is 99%; as for `O=C(O)C1=CC[C@@H](c2ccc(Cl)cc2)N(S(=O)(=O)c2ccc(Cl)cc2)[C@H]1c1ccc(Br)cc1`, 32.6%; as for `CCc1ccc([C@@H]2CC=C(C(=O)O)[C@H](c3cccc(C)c3)N2S(=O)(=O)c2ccc(C)cc2)cc1`, 60.5%.
Regarding `Cc1ccc([C@@H]2C[C@@H](SCCC(C)C)[C@H](C(=O)O)CN2S(=O)(=O)c2ccc(Cl)cc2)cc1`, the Activity came to 77.6%.
As for `CCCCCS[C@@H]1C[C@@H](c2ccc(C)cc2)N(S(C)(=O)=O)C[C@H]1C(=O)O`, the figure is 107%; as for `Cc1ccc([C@H]2C(C(=O)O)=CC[C@@H](c3ccc(C#N)cc3)N2S(=O)(=O)c2ccc(C)cc2)cc1`, 90.9%; as for `Cc1ccc([C@@H]2CC=C(C(=O)O)[C@H](c3ccc(C(C)(C)C)cc3)N2S(=O)(=O)c2ccccc2C)cc1`, 80.9%.
For the molecule `COc1ccc([C@@H]2CC=C(C(=O)O)[C@H](c3ccc(C(C)(C)C)cc3)N2S(=O)(=O)c2ccc(Cl)cc2)cc1`, the Activity is 68.5%.
As for `COc1ccc(S[C@@H]2C[C@@H](c3ccc(C)cc3)N(S(=O)(=O)c3ccc(C)cc3)C[C@H]2C(=O)O)cc1`, the Activity was 78.4%.
For the molecule `Cc1ccc(S[C@@H]2C[C@@H](c3ccc(C)cc3)N(S(=O)(=O)c3ccc(C)cc3)C[C@H]2C(=O)O)cc1`, the Activity was 62.4%.
As for `Cc1ccc(S(=O)(=O)N2[C@@H](c3cccc(F)c3)C(C(=O)O)=CC[C@H]2c2ccc(Cl)c(Cl)c2)cc1`, the figure is 45.1%; as for `CCCCS[C@@H]1C[C@@H](c2ccc(C)cc2)N(S(=O)(=O)c2ccc(C)cc2)C[C@H]1C(=O)O`, 82.6%.
As to `COc1ccc([C@@H]2CC=C(C(=O)O)[C@H](c3ccc(C(C)(C)C)cc3)N2S(=O)(=O)c2ccccc2C)cc1`, the Activity worked out at 70.7%.
Take `COc1cccc([C@@H]2CC=C(C(=O)O)[C@H](c3cccc(Br)c3)N2S(=O)(=O)c2ccc(C)cc2)c1`: the Activity came to 55.3%.
Turning to `COc1ccc(S[C@@H]2C[C@@H](c3cccc(Cl)c3)N(S(=O)(=O)c3ccc(C)cc3)C[C@H]2C(=O)O)cc1`, the Activity amounted to 93.3%.
As for `Cc1ccc(S(=O)(=O)N2C[C@@H](C(=O)O)[C@H](SCc3ccccc3)C[C@H]2c2ccc3c(c2)OCO3)cc1`, the figure is 63.1%; as for `Cc1ccc(S(=O)(=O)N2[C@@H](c3ccc(F)cc3)C(C(=O)O)=CC[C@H]2c2cccc(Cl)c2)cc1`, 60.2%; as for `Cc1ccc([C@@H]2CC=C(C(=O)O)[C@H](c3ccc(Br)cc3)N2S(=O)(=O)c2ccccc2)cc1`, 78.4%.
Take `COc1ccc(S[C@@H]2C[C@@H](c3ccccc3F)N(S(=O)(=O)c3ccc(C)cc3)C[C@H]2C(=O)O)cc1`: the Activity stood at 100%.
In the case of `Cc1ccc([C@@H]2C[C@@H](SCc3ccc(Cl)cc3)[C@H](C(=O)O)CN2S(=O)(=O)c2ccc(C)cc2)cc1`, the Activity stood at 50.9%.
